Biological target: human α7 nAChR (Homo sapiens (Human), UniProt P36544)
Test: Automated patch-clamp electrophysiology functional assay (Assay A)
Type: cell-based
Details: IonFlux HT whole-cell population patch, HEK cells expressing human α7/RIC-3, 40 μM acetylcholine
Procedure: The α7 nAChR positive allosteric modulator (PAM) activity of the present compounds may be tested using assays known in the art. The α7 nAChR PAMs described herein have activities in an automated patch-clamp electrophysiology functional assay as described in the examples. The assay was performed using the IonFlux HT in a whole-cell, population patch configuration. See Golden et al. Assay Drug Dev. Technol. (2011) 9:608-619. The compounds were assessed for their ability to modulate the function of the human α7 nAChR stably expressed in a HEK cell line both in the presence, and in the absence of the natural α7 agonist acetylcholine. By performing a series of such measurements at different concentrations, the effective concentration of the α7 nAChR PAMs (EC50) was determined. See Spencer et al. Assay Drug Dev. Technol. (2012) 10:313-324.
Direct activation of α7 (agonism), and potentiation of acetylcholine-evoked α7 currents was determined as follows:
Automated Patch-Clamp Electrophysiology Functional Assay (Assay A)
Automated patch-clamp electrophysiology was performed using the IonFluxHT (Fluxion Biosciences Inc., San Francisco, CA) in the whole-cell, population patch configuration. Test compounds were assessed for their ability to modulate the function of the α7 nicotinic acetylcholine receptor both in the presence, and in the absence of the natural α7 agonist acetylcholine. A HEK cell line stably expressing both human RIC-3 and human α7 (PrecisION hnAChR α7/RIC-3, Eurofins Pharma, St. Charles, MO) was cultured in 175 cm^2 triple-layer tissue culture flasks to no more than 90% confluency in DMEM/F-12 growth media supplemented with 10% heat-inactivated fetal bovine serum, 1% non-essential amino acids, 0.625 μg/mL Puromycin, and 400 μg/mL Geneticin. Immediately prior to assay, cells were detached by first aspirating growth media, rinsing with Dulbecco's phosphate buffered saline, and then adding 10 mL of Accutase (Innovative Cell Technologies, San Diego, CA) to the flask and then incubating at 37° C. for 5 minutes. Detached cells were then recovered by the addition of 40 mL of CHO-serum-free media supplemented with 25 mM HEPES, and rocked gently in a 50 mL conical tube for 20 minutes prior to patch-clamp assay. After recovery, cells were pelleted by centrifugation at 1,000 RPM for 1 minute in a compact bench top centrifuge; recovery media was aspirated and cells were resuspended in external recording solution (150 mM NaCl, 5 mM KCl, 2 mM CaCl2), 1 mM MgCl2, 10 mM HEPES, 12 mM dextrose) to a density of 5.0×10^6 cells/mL. The cell suspension was added to the cell inlet wells on an IonFlux HT population patch plate which had previously been rinsed and primed with deionized H2O. Test compounds were serially diluted in DMSO and then resuspended to the final test concentration in external recording solution, with, or without 40 μM acetylcholine added to the external recording solution; test compounds were then transferred to the IonFlux HT population patch plate. Internal recording solution (110 mM TrisPO4, 28 mM TrisBase, 0.1 mM CaCl2), 2 mM MgCl2, 11 mM EGTA, 4 mM MgATP) was added to the internal recording solution inlet wells on the IonFlux HT patch plate previously loaded with cells and test compounds, and the plate loaded into the IonFlux HT instrument. A protocol was executed on the IonFlux HT to trap the cells, break into the cells, and establish the whole-cell recording configuration; cells were voltage-clamped at a holding potential of −60 mV for the duration of the experiment, all experiments were conducted at room temperature, and the IonFlux HT injection pressure was 8 psi for solution applications. Upon establishing the whole-cell configuration, external recording solution was perfused into the recording chambers for 120 seconds and then 40 μM acetylcholine was applied for 1 second and immediately washed off with external recording solution for 60 seconds. […]

Chain of human α7 nAChR (P36544 23-502): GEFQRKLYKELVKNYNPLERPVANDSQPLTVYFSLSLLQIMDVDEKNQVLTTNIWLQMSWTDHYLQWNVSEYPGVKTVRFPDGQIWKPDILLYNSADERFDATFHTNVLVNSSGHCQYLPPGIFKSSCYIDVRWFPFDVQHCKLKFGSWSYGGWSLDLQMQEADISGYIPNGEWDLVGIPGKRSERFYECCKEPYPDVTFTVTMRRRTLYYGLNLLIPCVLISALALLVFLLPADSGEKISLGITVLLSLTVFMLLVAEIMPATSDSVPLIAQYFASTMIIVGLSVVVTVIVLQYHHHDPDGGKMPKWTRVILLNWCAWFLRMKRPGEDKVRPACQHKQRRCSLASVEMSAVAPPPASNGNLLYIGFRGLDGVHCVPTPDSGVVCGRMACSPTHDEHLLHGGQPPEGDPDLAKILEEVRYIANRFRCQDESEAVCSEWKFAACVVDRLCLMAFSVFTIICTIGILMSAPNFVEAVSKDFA

Row | Compound | EC50 (electrophysiology EC50 values) [nM] | EC50 (potency class) [nM]
1 | O=C(N[C@H]1COCc2ccc(F)cc21)C1C2Oc3ccc(F)cc3C21 (stereo partly drawn) [Example C1, exo-5-fluoro-N-[(4R)-6-fluoro-3,4-dihydro-1H-2-benzopyran-4-yl]-1a,6b-dihydro-1H-cyclopropa[b][1]benzofuran-1-carboxamide] | 4800 | 500 to 5000
2 | O=C(N[C@@H](CO)C1CCCCC1)C1C2Sc3ccccc3C21 (stereo partly drawn) [Example C2, exo-N-[(1R)-1-cyclohexyl-2-hydroxyethyl]-1a,6b-dihydro-1H-cyclopropa[b][1]benzothiophene-1-carboxamide] | 2300 | 500 to 5000
3 | CCOc1ccc(C2(NC(=O)C3C4Oc5ccc(F)cc5C43)CCC2)cn1 (stereo not drawn) [Example C3, exo-N-[1-(6-ethoxypyridin-3-yl)cyclobutyl]-5-fluoro-1a,6b-dihydro-1H-cyclopropa[b][1]benzofuran-1-carboxamide] | 5600 | 5000 to 50000
4 | COc1cc2c(cc1OC)[C@@H](NC(=O)C1C3Oc4ccc(F)cc4C31)COC2 (stereo partly drawn) [Example C4, exo-N-[(4R)-6,7-dimethoxy-3,4-dihydro-1H-2-benzopyran-4-yl]-5-fluoro-1a,6b-dihydro-11H-cyclopropa[b][1]benzofuran-1-carboxamide] | – | 5000 to 50000
5 | CCOc1ccc([C@@H](NC(=O)C2C3Oc4ccc(F)cc4C32)C(F)F)cn1 (stereo partly drawn) [Example C5, exo-N-[(1R)-1-(6-ethoxypyridin-3-yl)-2,2-difluoroethyl]-5-fluoro-1a,6b-dihydro-1H-cyclopropa[b][1]benzofuran-1-carboxamide] | 1400 | 500 to 5000
6 | O=C(N[C@H]1CCOc2cc(F)ccc21)C1C2Oc3ccc(F)cc3C21 (stereo partly drawn) [Example C6, exo-5-fluoro-N-[(4S)-7-fluoro-3,4-dihydro-2H-1-benzopyran-4-yl]-1a,6b-dihydro-1H-cyclopropa[b][1]benzofuran-1-carboxamide] | 860 | 500 to 5000
7 | O=C(N[C@H]1CCOc2cc(F)c(F)cc21)C1C2Oc3ccc(F)cc3C21 (stereo partly drawn) [Example C7, exo-N-[(4S)-6,7-difluoro-3,4-dihydro-2H-1-benzopyran-4-yl]-5-fluoro-1a,6b-dihydro-1H-cyclopropa[b][1]benzofuran-1-carboxamide] | 1100 | 500 to 5000
8 | COc1ccc2c(c1)OCC2NC(=O)C1C2Oc3ccc(F)cc3C21 (stereo not drawn) [Example C8, exo-5-fluoro-N-(6-methoxy-2,3-dihydro-1-benzofuran-3-yl)-1a,6b-dihydro-1H-cyclopropa[b][1]benzofuran-1-carboxamide] | 810 | 500 to 5000
9 | CCOc1ccc([C@@H](NC(=O)C2C3Oc4ccc(F)cc4C32)C(F)F)cn1 (stereo partly drawn) [Example C9, exo-N-[(1R)-1-(6-ethoxypyridin-3-yl)-2,2-difluoroethyl]-5-fluoro-1a,6b-dihydro-1H-cyclopropa[b][1]benzofuran-1-carboxamide] | 1100 | 500 to 5000
10 | O=C(NCCc1ccccc1)C1C2Oc3ccc(F)cc3C21 (stereo not drawn) [Example C11, exo-5-fluoro-N-(2-phenylethyl)-1a,6b-dihydro-1H-cyclopropa[b][1]benzofuran-1-carboxamide] | 2200 | 500 to 5000
11 | CC(NC(=O)C1C2Oc3ccc(F)cc3C21)c1cccs1 (stereo not drawn) [Example C12, exo-5-fluoro-N-[1-(thiophen-2-yl)ethyl]-1a,6b-dihydro-1H-cyclopropa[b][1]benzofuran-1-carboxamide] | 1200 | 500 to 5000
12 | O=C(NCc1cc(Cl)ccc1F)C1C2Oc3ccc(F)cc3C21 (stereo not drawn) [Example C14, exo-N-[(5-chloro-2-fluorophenyl)methyl]-5-fluoro-1a,6b-dihydro-1H-cyclopropa[b][1]benzofuran-1-carboxamide] | 810 | 500 to 5000
13 | O=C(NCc1ccc(Cl)c(F)c1)C1C2Oc3ccc(F)cc3C21 (stereo not drawn) [Example C15, exo-N-[(4-chloro-3-fluorophenyl)methyl]-5-fluoro-1a,6b-dihydro-1H-cyclopropa[b][1]benzofuran-1-carboxamide] | 5600 | 5000 to 50000
14 | CCC(NC(=O)C1C2Oc3ccc(F)cc3C21)c1ccccn1 (stereo not drawn) [Example C16, 2-{1-[(exo-5-fluoro-1a,6b-dihydro-1H-cyclopropa[b][1]benzofuran-1-carbonyl)amino]propyl}pyridine] | – | 500 to 5000
15 | O=C(NCc1cccs1)C1C2Oc3ccc(F)cc3C21 (stereo not drawn) [Example C17, exo-5-fluoro-N-[(thiophen-2-yl)methyl]-1a,6b-dihydro-1H-cyclopropa[b][1]benzofuran-1-carboxamide] | 970 | 500 to 5000
16 | O=C(NCc1cccc(N2CCCC2)n1)C1C2Oc3ccc(F)cc3C21 (stereo not drawn) [Example C18, 2-{[(exo-5-fluoro-1a,6b-dihydro-1H-cyclopropa[b][1]benzofuran-1-carbonyl)amino]methyl}-6-(pyrrolidin-1-yl)pyridine] | 1400 | 500 to 5000
17 | O=C(NCc1cc(C(F)F)nc(C(F)F)c1)C1C2Oc3ccc(F)cc3C21 (stereo not drawn) [Example C19, exo-N-{[2,6-bis(difluoromethyl)pyridin-4-yl]methyl}-5-fluoro-1a,6b-dihydro-1H-cyclopropa[b][1]benzofuran-1-carboxamide] | 600 | 500 to 5000
18 | CC(NC(=O)C1C2Oc3ccc(F)cc3C21)c1cc2ccccc2o1 (stereo not drawn) [Example C20, exo-N-[1-(1-benzofuran-2-yl)ethyl]-5-fluoro-1a,6b-dihydro-1H-cyclopropa[b][1]benzofuran-1-carboxamide] | 2300 | 500 to 5000
19 | O=C(NCc1cccc(I)c1)C1C2Oc3ccc(F)cc3C21 (stereo not drawn) [Example C21, exo-5-fluoro-N-[(3-iodophenyl)methyl]-1a,6b-dihydro-1H-cyclopropa[b][1]benzofuran-1-carboxamide] | 2100 | 500 to 5000
20 | O=C(NCc1cc(F)ccc1F)C1C2Oc3ccc(F)cc3C21 (stereo not drawn) [Example C22, exo-N-[(2,5-difluorophenyl)methyl]-5-fluoro-1a,6b-dihydro-1H-cyclopropa[b][1]benzofuran-1-carboxamide] | 3400 | 500 to 5000
21 | O=C(NCc1ccc(F)cc1F)C1C2Oc3ccc(F)cc3C21 (stereo not drawn) [Example C23, exo-N-[(2,4-difluorophenyl)methyl]-5-fluoro-1a,6b-dihydro-H-cyclopropa[b][1]benzofuran-1-carboxamide] | 2300 | 500 to 5000
22 | Cc1cc(F)cc(CNC(=O)C2C3Oc4ccc(F)cc4C32)c1 (stereo not drawn) [Example C24, exo-5-fluoro-N-[(3-fluoro-5-methylphenyl)methyl]-1a,6b-dihydro-1H-cyclopropa[b][1]benzofuran-1-carboxamide] | 950 | 500 to 5000
23 | O=C(NCc1ccc(-n2cccc2)cc1)C1C2Oc3ccc(F)cc3C21 (stereo not drawn) [Example C25, exo-5-fluoro-N-{[4-(1H-pyrrol-1-yl)phenyl]methyl}-1a,6b-dihydro-1H-cyclopropa[b][1]benzofuran-1-carboxamide] | 850 | 500 to 5000
24 | O=C(NCc1ccc(O)cc1)C1C2Oc3ccc(F)cc3C21 (stereo not drawn) [Example C26, exo-5-fluoro-N-[(4-hydroxyphenyl)methyl]-1a,6b-dihydro-1H-cyclopropa[b][1]benzofuran-1-carboxamide] | 680 | 500 to 5000
25 | O=C(NCc1ccc2ncccc2c1)C1C2Oc3ccc(F)cc3C21 (stereo not drawn) [Example C27, 6-{[(exo-5-fluoro-1a,6b-dihydro-1H-cyclopropa[b][1]benzofuran-1-carbonyl)amino]methyl}quinoline] | 2000 | 500 to 5000

From patent publication US20240368109A1, “ALLOSTERIC MODULATORS OF NICOTINIC ACETYLCHOLINE RECEPTORS” (MERCK SHARP & DOHME LLC, priority 2021, published 2024)
